These results are taken from patent US20130244950A1, “COMBINATION THERAPY FOR CHEMORESISTANT CANCERS” (CELGENE CORPORATION, priority 2011, published 2013).

Like-named read-outs stand apart in the source and are kept apart here.

Series [1] deals with ccRCC cell lines A498 and KIJ265T and TNBC cell lines MDA231 and BT20. The experiment in a line: Drug treatments and proliferation assay (cell counting, Coulter Particle Counter). In kind it is cell-based, Human. How it is done: Human renal cell carcinoma cell lines A498 (ATCC, Manassas, Va.) and KIJ265T (derived from primary tumor site stage 4 human renal cell carcinoma patient tissue established in the Copland laboratory), as well as triple negative breast cancer cell lines BT-20 (ATCC) and MDA-231 (ATCC) were maintained in phenol red free DMEM medium (Cellgro, Herndon, Va.) supplemented with 10% FBS (Hyclone, Logan, Utah) and penicillin-streptomycin (Invitrogen, Carlsbad, Calif.) at 37° C. in humidified conditions with 5% CO2.
DMSO was used for vehicle control. […] Cells were trypsinized 24 hours later and counted.

For series [2], the system named is BT20 cell line. The experiment in a line: Cell death analysis via flow cytometry (propidium iodide). In kind it is cell-based, Human. To be noted: 5 nM romidepsin and/or 1 μM decitabine, 72 hour treatment.
In series [3] the test system is KIJ265T ccRCC cell line. Described as above. In kind it is cell-based, Human. To be noted: 5 nM romidepsin and/or 1 μM decitabine, 72 hour treatment. As for the experimental part: Cells were treated with the optimal combinatorial therapy and appropriate control groups were prepared. After 72 hour treatment both adhered and floating cells were collected, centrifuged at 4° C., and washed using DPBS. Cells were centrifuged and re-suspended in 1× cold binding buffer (BD Pharmingen, San Jose, Calif.) at a concentration of 1×10^6 cells per ml. Cells were stained for 10 minutes with propidium iodide (BD Pharmingen), and FACS analysis was performed using Accuri C6 flow cytometer (Accuri, Ann Arbor, Mich.). Unstained cells were used as controls for setting the cell population parameters.

The conditions of series [4]: cited from earlier work.
Series [5] has as its system PARP cleavage in KIJ265T and MDA-231 parent cell lines. The experiment in a line: PARP cleavage after recombinant human sFRP1. In kind it is cell-based. To be noted: single dose of 1.4 nM sFRP1.
Series [6] has as its system MDA231 and KIJ265T cells. The series is described as follows: Proliferation of cells treated with recombinant human sFRP1. In kind it is cell-based. The settings on record: escalating doses of recombinant sFRP1 in the media, 72 hours. As for the experimental part: For the treatment of cells with recombinant human sFRP1, MDA231 and KIJ265T cells were seeded in a 96-well culture plate at 5000 cells per well in 100 μl DMEM supplemented with PSA and 10% FBS. After overnight incubation, cells were washed in PBS and 100 μl of serum free DMEM containing the final concentration of sFRP1 was added. The cells were incubated for 6 hours Serum was re-introduced to these wells to a final concentration of 2% FBS. Plates were incubated for 72 hours before cells were trypsinized and counted.

Regarding `C/C=C1\NC(=O)[C@H]2CSSCC/C=C/[C@H](CC(=O)N[C@H](C(C)C)C(=O)N2)OC(=O)[C@H](C(C)C)NC1=O` [romidepsin, (1S,4S,7Z,10S,16E,21R)-7-ethylidene-4,21-bis(1-methylethyl)-2-oxa-12,13-dithia-5,8,20,23-tetrazabicyclo[8.7.6]tricos-16-ene-3,6,9,19,22-pentone], the “cell death in single treatment samples” value in series [1] (5 nM romidepsin, 3 day exposure) is reported as around 50%. Besides, the “inhibition of cell proliferation” value in series [1] (romidepsin alone, 2.5-100 nM dose range, 72 hours post drug exposure) is reported as “significant inhibition of cell proliferation”. In series [2], the “cell death induced compared to DMSO controls” value amounted to 5.8%.
For the molecule `Nc1ncn([C@H]2C[C@H](O)[C@@H](CO)O2)c(=O)n1` [decitabine, 4-amino-1-(2-deoxy-β-D-erythro-pentofuranosyl)-1,3,5-triazin-2(1H)one], the “cell death induced above DMSO treated controls” value in series [3] is given as 6.3%. Moreover, the solubility result is recorded as “soluble” in series [4] (dimethylsulfoxide (DMSO)); “slightly soluble” in series [4] (ethanol/water (50/50), methanol/water (50/50) and methanol); “sparingly soluble” in series [4] (water). In addition, in series [1] (decitabine alone, all tested doses (0.01 μM to 10 μM), 72 hours post drug exposure), the “effect on cell proliferation” value is “minimal effect on cell proliferation”.
`Nc1ncn([C@@H]2O[C@H](CO)[C@@H](O)[C@H]2O)c(=O)n1` [azacitidine, 4-amino-1-β-D-ribofuranozyl-s-triazin-2(1H)-one]: the solubility entry in series [4] (acetone, ethanol and methyl ketone) is on record as “insoluble”; in series [4] (dimethylsulfoxide (DMSO)), “soluble”; in series [4] (ethanol/water (50/50), propylene glycol and polyethylene glycol), “slightly soluble”; in series [4] (water, water-saturated octanol, 5% dextrose in water, N-methyl-2-pyrrolidone, normal saline and 5% Tween 80 in water), “sparingly soluble”.

B1: recombinant human sFRP1: recombinant human secreted frizzled related protein 1, negative regulator of Wnt signaling (protein, UniProt Q8N474 32-314, looked up)
Secreted frizzled-related …: SEYDYVSFQSDIGPYQSGRFYTKPPQCVDIPADLRLCHNVGYKKMVLPNLLEHETMAEVKQQASSWVPLLNKNCHAGTQVFLCSLFAPVCLDRPIYPCRWLCEAVRDSCEPVMQFFGFYWPEMLKCDKFPEGDVCIAMTPPNATEASKPQGTTVCPPCDNELKSEAIIEHLCASEFALRMKIKEVKKENGDKKIVPKKKKPLKLGPIKKKDLKKLVLYLKNGADCPCHQLDNLSHHFLIMGRKVKSQYLLTAIHKWDKKNKEFKNFMKKMKNHECPTFQSVFK
As to B1, in series [5], the “induction of apoptosis (PARP cleavage)” value is given as “induction of apoptosis as seen by PARP cleavage”. In addition, the cell proliferation result in series [6] is reported as “dose-dependent decrease”.
